Assay results from US20230181524A1, “PHARMACEUTICAL COMBINATION AND USE THEREOF” (NATURAL MEDICINE INSTITUTE OF ZHEJIANG YANGSHENGTANG CO., …, priority 2020, published 2023).
“Also recorded” adds a separate entry of the source.

Legend:
HEK293 cells = experiment: Cell viability compared with HEK293 cells (specificity); format: cell-based; conditions: in combination with ascorbic acid
Experimental: HEK293 cells, HOS human osteosarcoma cells, and 143B human osteosarcoma cells were subcultured in an incubator at 37° C., 5% CO2 using a RPMI-1640 medium containing 10% fetal bovine serum (FBS).
10 μL was taken for counting.
(5) After 24h of dosing, the medium was discarded. […] The cells were digested for 5 min;

[1] = tested on: MC38 human colon cancer cells; experiment: Cell viability, method of Example 1; conditions: MC38 cells
Experimental: (1) Cells were plated in a 10 cm culture plate to grow a density of about 90%. The medium was removed, and the adherent cells were washed once with a PBS buffer. 1 mL of trypsin was added, and immediately discarded after mixing well. The cells were placed in the incubator and digested for about 5 min, and then about 10 ml of fresh medium was added. 10 μL was taken for counting.
(2) 10 μL of the well-mixed cells were taken and mixed into 10 μL of Trypan Blue solution, and counted.
(3) After counting, the cells were diluted to 1×10^5 cells/ml. The diluted cells were mixed well, and plated into a 24-well plate with 500 μL per well, i.e., about 50,000 cells per well.
(4) The cells plated in the 24-well plate were cultured for about 24h, and then drugs were added. Various test groups comprise 5 groups as follows: the single-drug group of PKF118-310 (with a concentration of 0.1 μM), the group of ascorbic acid (with a concentration of 0.5 mM), the group of PKF118-310 (with a concentration of 0.1 μM) in combination with ascorbic acid (with a concentration of 0.5 mM); the control group that is a cell group to which only solvent DMSO is added; and the blank group that is a group to which no cell is added and only solvent (DMSO) is added.
(5) After 24h of dosing, the medium was discarded. About 150 μL of trypsin was added and then discarded. The cells were digested for 5 min;
(6) After digestion, equivalent amounts of PBS were added into each well and mixed uniformly. Then, 10 μL/well of Trypan Blue solution was added and mixed uniformly. 10 μL of the well-mixed solution was taken and counted. In accordance with “Cell viability=Cell Count of Test Group/Cell Count of Control Group×100%”, the cell viability of various groups was calculated.
The inhibitory effect of PKF118-310 on the MC38 human colon cancer cells and the HCT116 human […] cancer cells was detected in accordance with the corresponding method of Example 1.

143B cells = experiment: Osteosarcoma tumor model in nude mice (tumor volume, Luciferin fluorescence imaging); format: in vivo, nude mice (BALB/c-nu)
Experimental: (1) Tumor preparation in nude mice. 6-8-week-old female nude mice (BALB/c-nu) (purchased from Vital River Laboratory Animal Technology Co., Ltd.) were selected. 143B cells were cultured in vitro to the log phase. The cells were collected and re-suspended in a PBS buffer solution. The collected cells were subcutaneously injected to the mammary glands of nude mice with 5×10^6 143B cells/nude mouse to establish a model of tumor in situ.

[2] = 0.3 μM in combination with 0.5 mM sodium ascorbate

Q: With Cn1ncnc2c(=O)n(C)c(=O)nc1-2 [PKF118-310] as the compound, how does the “specificity of inhibition of tumor cell viability as compared with the HEK293 cells” value (HEK293 cells) read?
A: can specifically inhibit the cell viability of the 143B cells and the HOS cells; also recorded: can specifically inhibit the activity of the HCT116 cells and the MC38 cells

Q: And the CDI value [1, 2]?
A: 0.15

Q: And the cell viability [1, 2]?
A: 11%

Q: What about the cell viability ([1]; single-drug 0.3 μM) of the same compound?
A: 88%

Q: And the “tumor growth, tumor volume with time” value (143B cells; 0.7 mg/kg PKF118-310 s.c. + 1 g/kg ascorbic acid i.v. every 3 days, 6 times, vs blank control and single-drug groups (P<0.001))?
A: significantly inhibits the tumor growth

Q: And the “tumor volume on Day 21” value (143B cells; 0.7 mg/kg PKF118-310 s.c. + 1 g/kg ascorbic acid i.v., compared with blank control, PKF118-310 and sodium ascorbate groups)?
A: substantially smaller

Q: What about the “tumor growth, Luciferin fluorescence imaging” value (143B cells; Day 21, 0.7 mg/kg PKF118-310 s.c. + 1 g/kg ascorbic acid i.v. every 3 days, 6 times, vs blank control and single-drug groups) of the same compound?
A: significantly inhibits the tumor growth
